Assay: Vapor pressure at 20° C.
Type: physicochemical
Conditions: not given

SMILES	vapor pressure
CC(C)(c1ccccc1)c1cc(-n2nc3ccccc3n2)c(O)c(C(C)(C)c2ccccc2)c1 [Tinuvin 234, 2-(2H-benzotriazol-2-yl)-4,6-bis(1-methyl-1-phenylethyl)phenol]	2.0×10^−10 Pa

Assay: Solubility relative to 100 g of water at 20° C.
Type: physicochemical
Conditions: per 100 g of water

SMILES	solubility relative to 100 g of water [g]
NNC(=O)CCCCCCCCCCCCCCCCCCC(=O)NN [1,18-octadecane dicarbohydrazide]	≤ 0.1
NNC(=O)c1ccc(C(=O)NN)cc1 [Dihydrazide compound-1, terephthalic acid dihydrazide]	≤ 0.01
NNC(=O)CCCCCCCCCCC(=O)NN [Dihydrazide compound-2, 1,10-dodecane diacid dihydrazide]	≤ 0.01
NNC(=O)CCCCC(=O)NN [Dihydrazide compound-3, adipic acid dihydrazide, reference compound]	9.1
NNC(=O)C(=O)NN [oxalic acid dihydrazide]	≤ 0.2

Source: US8846788B2, “Polyacetal resin composition, resin molded article, and method and agent for improving polyacetal resin raw material composition” (Mitsubishi Engineering-Plastics Corporation, priority 2008, dated 2014)
